Assays:
Format in all cases: cell-based
[1] = test system: total actin cytoskeleton in SK-N-SH neuroblastoma cells; assay: Microfilament disruption assay, 488-Atto-Phallodin imaging and filament quantitation; settings: 0-40 μM, 24 h, FIG. 2
Description: (§1) FIG. 2: Imaging and quantitation of actin filaments in SK—N—SH neuroblastoma cells treated with compound (A) 4093 and (B) 4113. Cells were stained with 488-Atto-Phallodin and DAPI to visualize the actin filament bundles and the nucleus, respectively. Shown in the top panel is a representative grey scale immunofluorescent image from control (vehicle alone), 5 μM and 10 μM treated cells. […] The coloured lines indicate the detected actin filaments. Also shown is the quantitation of cell number, filament number/cell and filament number/cell area ([…]). […]
(§2) The ability of compounds 4093 and 4113 to disrupt the total actin cytoskeleton (FIG. 2) and to specifically target Tm5NM1-containing actin filaments (FIG. 3) was assessed in vitro using the microfilament disruption assay.
(§3) Briefly, SK-N-SH neuroblastoma cells were seeded at 1800 cells/well in a 384 Perkin Elmer High Content Imaging “View” plate and left to plate down 24 h prior to treatment. […] Images were then exported and changes in the organization and numbers of actin filaments within the cell were quantitated using a linear feature detection algorithm developed by the CSIRO. […] It is these “ridge lines” that correspond to actin filament bundles and allow us to quantitate the number of filaments per cell.

[2] = test system: Tm5NM1-containing actin filaments in SK-N-SH neuroblastoma cells; assay: Microfilament disruption assay, γ9d staining imaging and filament quantitation; settings: 0-40 μM, 24 h, FIG. 3
Description: as §1, with “FIG. 3:” for “FIG. 2:”, “with γ9d (sheep polycolonal, 1:100) followed by 488-conjugated secondary (1:1000)” for “with 488-Atto-Phallodin”, “the Tm5NM1 containing” for “the actin”
as §2, §3

[3] = test system: SK-Mel-28 melanoma cells; assay: Anti-proliferative assay, cell-titre luminescent reagent, 72 h (GVK-BIO); settings: Homo sapiens, SK-MEL-28, 72 h, 30, 10, 3, 1, 0.3 and 0.1 μM, nonlinear regression (Table 5)
Outline: (§4)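 Seed at predetermined density, 24 h attach (37 °C, 5% CO2). Dose 4-point (30–0.03 μM, 10-fold) → IC50 by linear regression on semi-log plot; or 6-point (30–0.1 μM) → EC50 by sigmoidal variable-slope fit. Reagent 30 min, luminescence vs untreated control.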

[4] = test system: DU145 prostate cancer cells; assay: as above; settings: Homo sapiens, DU-145, 72 h, 30, 10, 3, 1, 0.3 and 0.1 μM, nonlinear regression (Table 5)
Outline: as §4

[5] = test system: A549 non-small cell lung carcinoma cells; assay: as above; settings: Homo sapiens, A549, 72 h, 30, 10, 3, 1, 0.3 and 0.1 μM, nonlinear regression (Table 5), read-out: IC50/μM Lung (NSLC) A549
Outline: as §4

[6] = test system: MDA-MB-231 triple negative breast cancer cells; assay: as above; settings: Homo sapiens, MDA-MB-231, 72 h, 30, 10, 3, 1, 0.3 and 0.1 μM, nonlinear regression (Table 5)
Outline: as §4

[7] = test system: PC3 prostate cancer cells; assay: as above; settings: 30, 10, 3, 1, 0.3 and 0.1 μM, nonlinear regression (Table 5)
Outline: as §4

[8] = test system: CaCo2 colorectal cancer cells; assay: as above; settings: Homo sapiens, Caco-2, 72 h, 30, 10, 3, 1, 0.3 and 0.1 μM, nonlinear regression (Table 5)
Outline: as §4

[9] = test system: SK-N-SH neuroblastoma cells; assay: as above; settings: Homo sapiens, SK-N-SH, 30, 10, 3, 1, 0.3 and 0.1 μM, nonlinear regression (Table 5)
Outline: as §4

Cc1c(C)n(CCCN2CCN(C)CC2)c2ccc(CN3CCN(CCc4ccc5c(c4)OCO5)CC3)cc12 [Compound 4113, 5-((4-(2-(benzo[d][1,3]dioxol-5-yl)ethyl)piperazin-1-yl)methyl)-2,3-dimethyl-1-(3-(4-methylpiperazin-1-yl)propyl)-1H-indole]
Disruption of the total actin cytoskeleton [1]: disrupt both the total actin cytoskeleton and Tm5NM1-containing actin filaments in a dose-dependent manner
Disruption of Tm5NM1-containing actin filaments [2]: disrupt both the total actin cytoskeleton and Tm5NM1-containing actin filaments in a dose-dependent manner
IC50 [3]: 0.9 µM
IC50 [4]: 5.4 µM
IC50 [5]: 5.2 µM
IC50 [6]: 2.8 µM
IC50 [7]: 11.4 µM
IC50 [8]: 4.6 µM
IC50 [9]: 1.7 µM

Source: patent US20170166555A1, “FUNCTIONALISED AND SUBSTITUTED INDOLES AS ANTI-CANCER AGENTS” (Novogen Limited, priority 2013, published 2017)
